Data reported in publication PMC11844454 (bioRxiv, 2025).

Columns and labels:
PP4 holoenzyme = PP4 holoenzyme (Homo sapiens, UniProt P60510); conditions: 100 uM DiFMUP; pH 7.4, 30 C; Mg2+ from enzyme buffer
PP6 holoenzyme = PP6 holoenzyme (Homo sapiens, UniProt O00743); conditions: 100 uM DiFMUP; pH 7.4, 30 C; Mg2+ from enzyme buffer
Chain of PP6 holoenzyme (O00743 whole entry): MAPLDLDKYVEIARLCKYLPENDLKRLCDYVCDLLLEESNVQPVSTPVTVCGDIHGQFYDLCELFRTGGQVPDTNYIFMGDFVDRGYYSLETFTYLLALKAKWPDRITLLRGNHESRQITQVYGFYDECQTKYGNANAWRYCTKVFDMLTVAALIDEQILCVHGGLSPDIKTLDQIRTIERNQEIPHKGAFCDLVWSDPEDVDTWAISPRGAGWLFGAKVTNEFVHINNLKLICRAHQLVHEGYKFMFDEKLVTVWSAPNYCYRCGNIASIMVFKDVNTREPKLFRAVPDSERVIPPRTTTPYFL
Chain of PP6 holoenzyme (Q9UPN7 whole entry partner): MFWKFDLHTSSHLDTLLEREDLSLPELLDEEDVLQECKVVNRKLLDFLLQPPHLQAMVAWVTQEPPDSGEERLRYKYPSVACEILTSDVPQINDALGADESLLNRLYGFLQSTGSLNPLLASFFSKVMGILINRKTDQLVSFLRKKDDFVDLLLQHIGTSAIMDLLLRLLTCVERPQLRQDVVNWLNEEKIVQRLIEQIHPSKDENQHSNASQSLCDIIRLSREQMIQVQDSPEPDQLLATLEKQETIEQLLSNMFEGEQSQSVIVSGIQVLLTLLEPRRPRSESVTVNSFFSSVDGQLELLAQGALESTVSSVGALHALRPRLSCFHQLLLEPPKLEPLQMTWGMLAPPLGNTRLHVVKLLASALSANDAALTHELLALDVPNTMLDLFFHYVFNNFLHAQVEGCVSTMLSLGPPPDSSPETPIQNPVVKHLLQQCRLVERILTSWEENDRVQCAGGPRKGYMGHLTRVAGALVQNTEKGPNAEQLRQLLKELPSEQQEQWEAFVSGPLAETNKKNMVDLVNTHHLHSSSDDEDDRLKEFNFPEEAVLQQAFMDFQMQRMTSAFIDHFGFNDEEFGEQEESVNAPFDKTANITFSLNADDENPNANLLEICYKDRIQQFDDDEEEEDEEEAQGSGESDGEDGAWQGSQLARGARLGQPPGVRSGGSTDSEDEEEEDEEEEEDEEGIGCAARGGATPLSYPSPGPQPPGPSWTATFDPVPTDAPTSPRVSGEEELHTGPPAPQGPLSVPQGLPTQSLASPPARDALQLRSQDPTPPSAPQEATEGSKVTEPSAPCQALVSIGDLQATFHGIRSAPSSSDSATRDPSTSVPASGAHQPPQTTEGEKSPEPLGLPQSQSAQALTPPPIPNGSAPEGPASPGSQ
Chain of PP6 holoenzyme (O15084 whole entry partner): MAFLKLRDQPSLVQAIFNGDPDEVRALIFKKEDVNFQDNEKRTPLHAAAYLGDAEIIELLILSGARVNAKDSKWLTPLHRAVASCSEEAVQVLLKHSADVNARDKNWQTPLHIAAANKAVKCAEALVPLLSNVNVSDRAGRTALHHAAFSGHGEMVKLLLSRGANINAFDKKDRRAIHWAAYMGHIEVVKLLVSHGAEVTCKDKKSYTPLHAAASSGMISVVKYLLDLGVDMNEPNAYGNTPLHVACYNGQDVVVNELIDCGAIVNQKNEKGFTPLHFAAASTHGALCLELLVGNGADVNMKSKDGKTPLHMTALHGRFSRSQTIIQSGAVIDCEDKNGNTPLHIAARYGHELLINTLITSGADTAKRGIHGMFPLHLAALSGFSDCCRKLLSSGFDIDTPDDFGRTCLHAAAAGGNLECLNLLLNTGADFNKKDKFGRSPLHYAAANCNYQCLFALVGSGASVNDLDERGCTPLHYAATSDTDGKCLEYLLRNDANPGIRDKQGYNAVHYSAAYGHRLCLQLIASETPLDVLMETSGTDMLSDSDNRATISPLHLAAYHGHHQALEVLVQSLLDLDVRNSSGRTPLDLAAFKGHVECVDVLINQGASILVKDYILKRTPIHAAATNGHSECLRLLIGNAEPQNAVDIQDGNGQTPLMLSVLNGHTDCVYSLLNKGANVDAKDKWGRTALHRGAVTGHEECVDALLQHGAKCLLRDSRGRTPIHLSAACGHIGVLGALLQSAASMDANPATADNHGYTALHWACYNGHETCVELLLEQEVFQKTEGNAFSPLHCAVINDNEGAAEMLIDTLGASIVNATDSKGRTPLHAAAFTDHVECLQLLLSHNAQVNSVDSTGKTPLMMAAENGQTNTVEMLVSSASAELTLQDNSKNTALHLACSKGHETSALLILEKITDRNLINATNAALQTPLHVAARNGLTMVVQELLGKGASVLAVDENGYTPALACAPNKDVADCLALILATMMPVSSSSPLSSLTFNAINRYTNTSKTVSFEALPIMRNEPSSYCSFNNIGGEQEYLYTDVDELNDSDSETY

Chain of PP4 holoenzyme (P60510 2-307): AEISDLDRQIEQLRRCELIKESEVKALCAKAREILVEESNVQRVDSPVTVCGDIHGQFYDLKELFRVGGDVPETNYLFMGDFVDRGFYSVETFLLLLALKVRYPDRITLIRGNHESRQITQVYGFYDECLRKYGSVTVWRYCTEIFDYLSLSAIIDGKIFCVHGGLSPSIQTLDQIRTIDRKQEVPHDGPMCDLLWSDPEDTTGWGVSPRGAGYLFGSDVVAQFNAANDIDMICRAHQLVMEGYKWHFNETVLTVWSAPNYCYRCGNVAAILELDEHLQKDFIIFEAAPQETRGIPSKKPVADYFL
Chain of PP4 holoenzyme (Q9NY27 whole entry partner): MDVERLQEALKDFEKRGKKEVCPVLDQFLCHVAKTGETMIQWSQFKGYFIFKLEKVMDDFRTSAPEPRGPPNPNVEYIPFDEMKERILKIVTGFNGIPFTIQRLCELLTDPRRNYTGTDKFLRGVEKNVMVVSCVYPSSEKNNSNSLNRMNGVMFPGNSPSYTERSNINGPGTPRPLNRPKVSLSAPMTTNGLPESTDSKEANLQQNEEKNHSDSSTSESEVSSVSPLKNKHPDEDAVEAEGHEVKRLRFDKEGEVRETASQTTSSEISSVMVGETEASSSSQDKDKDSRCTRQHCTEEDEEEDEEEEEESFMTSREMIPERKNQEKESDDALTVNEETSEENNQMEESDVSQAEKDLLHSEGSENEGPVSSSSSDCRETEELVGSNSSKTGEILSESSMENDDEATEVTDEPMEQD
Chain of PP4 holoenzyme (Q6IN85 whole entry partner): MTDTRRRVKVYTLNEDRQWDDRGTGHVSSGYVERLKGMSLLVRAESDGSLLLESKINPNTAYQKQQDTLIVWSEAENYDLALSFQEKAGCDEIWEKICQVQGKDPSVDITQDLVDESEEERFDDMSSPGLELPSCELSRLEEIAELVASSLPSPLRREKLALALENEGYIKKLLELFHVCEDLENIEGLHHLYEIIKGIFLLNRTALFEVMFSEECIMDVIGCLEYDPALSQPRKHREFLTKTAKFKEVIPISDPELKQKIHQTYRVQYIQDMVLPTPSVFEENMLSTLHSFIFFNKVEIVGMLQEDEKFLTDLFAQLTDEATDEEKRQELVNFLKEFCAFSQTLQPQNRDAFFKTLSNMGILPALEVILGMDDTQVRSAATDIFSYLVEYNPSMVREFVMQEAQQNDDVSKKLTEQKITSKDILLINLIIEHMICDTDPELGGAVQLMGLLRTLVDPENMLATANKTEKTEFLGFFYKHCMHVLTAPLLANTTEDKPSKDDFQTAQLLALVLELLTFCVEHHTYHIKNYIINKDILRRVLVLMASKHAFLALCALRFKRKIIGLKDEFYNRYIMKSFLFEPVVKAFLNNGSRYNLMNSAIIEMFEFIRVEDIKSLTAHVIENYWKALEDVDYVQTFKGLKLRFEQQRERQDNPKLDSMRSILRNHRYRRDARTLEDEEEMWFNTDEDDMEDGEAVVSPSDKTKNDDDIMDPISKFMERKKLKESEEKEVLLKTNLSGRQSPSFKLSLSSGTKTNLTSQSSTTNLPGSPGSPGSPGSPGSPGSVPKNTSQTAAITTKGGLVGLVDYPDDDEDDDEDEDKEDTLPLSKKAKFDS

fluorescence dephosphorylation assay (PP4 holoenzyme): mixing purified PP4 and PP6 holoenzymes
SMILES: Cc1cc(=O)oc2c(F)c(OP(=O)(O)O)c(F)cc12 [DiFMUP]
fluorescence dephosphorylation assay (PP6 holoenzyme): DiFMUP dephosphorylation assay measuring the activity of purified PP6 holoenzyme
